Assays:
Raw264.7 cells = experiment: CCK-8 cytotoxicity assay, 24 hours; assay type: cell-based; settings: at 40 μM or lower concentrations
Procedure: FIG. 1 Characterization of anti-inflammatory properties of APR-like compounds. (a) Raw264.7 cells were pretreated with APR (20 μM) or new compounds 1 to 10 (5 μM) for 24 h followed by incubation with LPS (100 ng/mL) for an additional 6 h. IL-6 and IL-1β mRNA expression levels were evaluated by qPCR and normalized with GAPDH mRNA level. (b) Raw264.7 cells were pretreated with different doses of AdipoAI for 24 h followed by incubation with LPS (100 ng/mL) for additional 6 h to evaluate dose-dependency of AdipoAI in inhibiting IL-6 and IL-1β mRNA expression levels by qRT-PCR and normalized with GAPDH mRNA level. (c) Evaluation of cytotoxicity of APR, AdipoAI and compound 5 by CCK8 assay in Raw264.7 cells treated for 24 hours. (d) BMMs were pretreated with APR (20 μM), AdipoAI (5 μM) or compound 5 (5 μM) for 24 h followed by incubation with LPS (100 ng/ml) for additional 6 h for the measurement of IL-6 and IL-1β mRNA expression levels by qRT-PCR and normalized with GAPDH mRNA level. Data were expressed as the mean±SEM at five biological independent experiments. One-way ANOVA test for multiple-group comparisons, *P<0.05, significant differences between each indicated group.
Raw264.7 cells were seeded at 2×10^3 cells/well in 96-well plates for 16 hours and then serum-starved for 6 hours. Cells were maintained in DMEM in the presence of different concentrations of APR (AdipoGen Life Sciences, San Diego, CA, USA) and compounds for 24 hours. […] The detailed group assignment is shown in the individual figure legends.

DIO mice = experiment: Systemic inflammation in DIO mice, oral gavage 14 days; assay type: in vivo; settings: AdipoAI 25 mg/kg; for mRNA expression of IL-6 and IL-1β in WAT, spleen, bone marrow / serum levels of IL-6 and IL-1β: oral gavage 14 days, APR 50 mg/kg
Procedure: FIG. 3 AdipoAI decreases inflammation in DIO mice (n=6). DIO mice were orally gavaged with APR (50 mg/kg) or AdipoAI (25 mg/kg) for 14 days, and control animals (WT or DIO mice) were administered with equivalent volumes of DMSO. mRNA expression levels of pro-inflammatory cytokines in (a) WAT, (b) spleen and (c) bone marrow were measured by qRT-PCR and normalized to the level of β-actin mRNA. Data are expressed as mean±SEM. (d) Serum levels of IL-6 and IL-1β were measured by ELISA. Data are expressed as mean #SEM. Representative images of H&E (e) and IHC of F4/80 staining (f) of spleen tissue in DIO mice (n=6). Red arrow indicates multinucleated giant cells (megakaryocytes). One-way ANOVA test for multiple-group comparisons, * vs. WT-vehicle group, # vs. DIO-vehicle group. */#P<0.05, significant differences between each indicated group. ns, not significant.
The Ethics Committee on the Use and Care of Animals at Tufts University approved the study protocol (Boston, MA, USA). The animals received humane care according to the criteria outlined in the Guide for the Care and Use of Laboratory Animals prepared by the National Academy of Sciences and published by the National Institutes of Health. All experiments involving animals or animal tissue are reported in compliance with the guidelines of ARRIVE and BJP (Kilkenny et al., 2010; McGrath and Lilley, 2015). Experimental protocols and design adhere to BJP guidelines (Curtis et al., 2015). Wild-type (WT, C57BL/6J, Jax #000664), DIO (Jax #380050), and APN KO (Jax #008195) mice were purchased from the Jackson Laboratory. The DIO mice were fed with a high-fat diet (containing 60% kcal from fat; Jackson Laboratory) at 6 weeks of age and later. The WT mice were fed with ordinary diet as normal chow (NC)-fed mice, and APN KO mice were maintained and fed with an NC diet as previously described (Tu et al., 2011). For the LPS-induced endotoxemia model, male C57BL/6 mice aged 8 weeks received oral gavage with APR (50 mg/kg body weight) or AdipoAI (25 mg/kg body weight) for 24 h before by LPS (20 mg/kg body weight) treatment which was administered intraperitoneally whereas control animals were treated with equivalent volumes of normal PBS. Mouse survival in each group was monitored and recorded up to 84 h. All mice were killed at 1 h for detection of activation of inflammatory genes, at 6 h for determination of inflammatory factors in serum, and at 24 h for histological evaluation. Animal data were excluded from experiments based on pre-established criteria of visible abnormal tissue structure during sample harvest or other health issues, including fighting wounds.

[1] = tested on: LPS-stimulated RAW 264.7 macrophages; experiment: qPCR of cytokine mRNA in LPS-stimulated RAW 264.7 macrophages; assay type: cell-based; settings: for expression of anti-inflammatory cytokine IL-10: LPS-induced macrophages; for IL-10 expression, longer treatments / IL-10 mRNA expression, treatment for 18 h or less: macrophages; for IL-10 expression, longer treatments: longer than 18 h; for IL-10 mRNA expression, treatment for 18 h or less: no LPS

Row | Compound | cytotoxic effects (CCK-8) (Raw264.7 cells) | megakaryocytes and macrophages in spleen (H&E, IHC F4/80) (DIO mice; 14 days) | mRNA expression of IL-6 and IL-1β in WAT, spleen, bone marrow (DIO mice) | serum levels of IL-6 and IL-1β (DIO mice) | TNF-α expression levels ([1]; LPS-induced Raw264.7 macrophage, BMMs or PEMs (data not shown)) | expression of anti-inflammatory cytokine IL-10 [1] | IL-10 expression, longer treatments [1] | IL-10 mRNA expression, treatment for 18 h or less [1]
1 | COc1ccc(CN2CCC(NC(=O)COc3ccc(C(=O)c4ccc(Cl)cc4)cc3)CC2)cc1 [Compound 3] | neither of the 3 small molecules mediated significant cytotoxic effects | decreased quantity of megakaryocytes and macrophages | inhibited mRNA expression of IL-6 (Il6) and IL-1β (Il1β) | reduced IL-6 and IL-1β levels in the serum | did not inhibit TNF-α expression levels | downregulated expression of the anti-inflammatory cytokine IL-10 | decreased IL-10 expression | increased IL-10 mRNA expression
2 | O=C(COc1ccc(C(=O)c2ccccc2)cc1)NC1CCN(Cc2ccccc2)CC1 [AdipoRon, reference compound] | neither of the 3 small molecules mediated significant cytotoxic effects |  | inhibited the expression levels of IL-6 and IL-1β | inhibited the expression levels of IL-6 and IL-1β |  | downregulated expression of the anti-inflammatory cytokine IL-10 | decreased IL-10 expression | increased IL-10 mRNA expression
